From ChEMBL document CHEMBL1201862, “PubChem BioAssay data set” (2004)
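Grown in 96-well plates, cells were treated for 48 hours with each compound at five concentrations. Insufficient inhibition: endpoint recorded as highest concentration tested. GI50 marks 50% less growth.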 Active and inactive are the calls of the source. Cut-off read from the data, not from the text of the source: active = GI50 up to about 1.1 µM and inactive = higher.

Assays:
Experiment in all cases: DTP human tumour cell line panel, 48 h
[1] = tested on: 786-0
[2] = tested on: A498
[3] = tested on: A549
[4] = tested on: ACHN
[5] = tested on: CAKI-1
[6] = tested on: CCRF-CEM
[7] = tested on: COLO 205
[8] = tested on: DMS-114
[9] = tested on: DMS-273
[10] = tested on: EKVX
[11] = tested on: HCC 2998
[12] = tested on: HCT-116
[13] = tested on: HCT-15
[14] = tested on: HL-60
[15] = tested on: HOP-18
[16] = tested on: HOP-62
[17] = tested on: HOP-92
[18] = tested on: HT-29
[19] = tested on: IGROV-1
[20] = tested on: K562
[21] = tested on: KM-20L2
[22] = tested on: KM12
[23] = tested on: LOX IMVI
[24] = tested on: LXFL 529
[25] = tested on: M14
[26] = tested on: M19-MEL
[27] = tested on: MOLT-4
[28] = tested on: Malme-3M
[29] = tested on: NCI-H226
[30] = tested on: NCI-H23
[31] = tested on: NCI-H460
[32] = tested on: NCI-H522
[33] = tested on: OVCAR-3
[34] = tested on: OVCAR-4
[35] = tested on: OVCAR-5
[36] = tested on: OVCAR-8
[37] = tested on: RPMI-8226
[38] = tested on: RXF 393
[39] = tested on: RXF 631
[40] = tested on: SF-268
[41] = tested on: SF-295
[42] = tested on: SF-539
[43] = tested on: SK-MEL-28
[44] = tested on: SK-MEL-2
[45] = tested on: SK-MEL-5
[46] = tested on: SK-OV-3
[47] = tested on: SN12C
[48] = tested on: SNB-19
[49] = tested on: SNB-75
[50] = tested on: SNB-78
[51] = tested on: SR
[52] = tested on: SW-620
[53] = tested on: TK-10
[54] = tested on: U-251
[55] = tested on: UACC-257
[56] = tested on: UACC-62
[57] = tested on: UO-31
[58] = tested on: XF498

In the case of `CCCCCCC(=O)C/C(CCC(=O)N(Cc1ccccc1)Cc1ccccc1)=N\NC(N)=O`, the GI50 [1] is reported as > 100 µM (inactive), the GI50 [2] is reported as > 100 µM (inactive) and the GI50 [3] is reported as > 100 µM (inactive). For the same molecule, the GI50 [4] was > 100 µM (inactive), the GI50 [5] was > 100 µM (inactive) and the GI50 [6] was > 100 µM (inactive). For the same molecule, the GI50 [7] was > 100 µM (inactive), the GI50 [8] was > 100 µM (inactive) and the GI50 [9] was > 100 µM (inactive). The GI50 [10] was > 100 µM (inactive), the GI50 [11] was > 100 µM (inactive) and the GI50 [12] was > 100 µM (inactive). For the same molecule, the GI50 [13] was greater than 100 µM, the GI50 [14] was > 100 µM (inactive) and the GI50 [15] was > 100 µM (inactive). The GI50 [16] was > 100 µM (inactive), the GI50 [17] was > 100 µM (inactive) and the GI50 [18] was > 100 µM (inactive). The GI50 [19] was > 100 µM (inactive), the GI50 [20] was > 100 µM (inactive) and the GI50 [21] was > 100 µM (inactive). The GI50 [22] was > 100 µM (inactive), the GI50 [23] was > 100 µM (inactive) and the GI50 [24] was > 100 µM (inactive). The GI50 [25] was > 100 µM (inactive), the GI50 [26] was > 100 µM (inactive) and the GI50 [27] was > 100 µM (inactive). The GI50 [28] was > 100 µM (inactive), the GI50 [29] was > 100 µM (inactive) and the GI50 [30] was > 100 µM (inactive). The GI50 [31] was > 100 µM (inactive), the GI50 [32] was > 100 µM (inactive) and the GI50 [33] was > 100 µM (inactive). The GI50 [34] was > 100 µM (inactive), the GI50 [35] was > 100 µM (inactive) and the GI50 [36] was > 100 µM (inactive). For the same molecule, the GI50 [37] was > 100 µM (inactive), the GI50 [38] was > 100 µM (inactive) and the GI50 [39] was > 100 µM (inactive). For the same molecule, the GI50 [40] was > 100 µM (inactive), the GI50 [41] was > 100 µM (inactive) and the GI50 [42] was > 100 µM (inactive). For the same molecule, the GI50 [43] was > 100 µM (inactive), the GI50 [44] was > 100 µM (inactive) and the GI50 [45] was > 100 µM (inactive). The GI50 [46] was > 100 µM (inactive), the GI50 [47] was > 100 µM (inactive) and the GI50 [48] was > 100 µM (inactive). For the same molecule, the GI50 [49] was > 100 µM (inactive), the GI50 [50] was > 100 µM (inactive) and the GI50 [51] was > 100 µM (inactive). The GI50 [52] was > 100 µM (inactive), the GI50 [53] was > 100 µM (inactive) and the GI50 [54] was > 100 µM (inactive). For the same molecule, the GI50 [55] was > 100 µM (inactive), the GI50 [56] was > 100 µM (inactive) and the GI50 [57] was > 100 µM (inactive). For the same molecule, the GI50 [58] was > 100 µM (inactive).
